Reference: patent US9808536B2, “Hypericin albumin nanoparticle-Escherichia coli serum antibody complex and preperation method and application thereof” (LANZHOU INSTITUTE OF HUSBANDRY AND PHARMACEUTICAL SCIENCES …, priority 2015, dated 2017)
In brackets after ≈: the same amount, converted by molar mass.

Assays:
[1] = system: Staphylococcus aureus (S. aureus) C26112; test: Minimal inhibitory concentration, double dilution method, Staphylococcus aureus; details: for minimal inhibitory concentration: Staphylococcus aureus, no growth on agar plate after 24 hours
[2] = system: pathogenic Escherichia coli; test: Treatment of chicken colibacillosis (sick chickens); details: 2.00 mg/Kg intramuscular, 2 times/d, 1 d, 50 chickens
Escherichia coli = test: Treatment of colibacillosis animal model (mice); details: control groups, 30 mice; hypericin injection 1.0 mL/mouse intramuscular
[3] = system: Escherichia coli (E. coli) C4403; test: Minimal inhibitory concentration, double dilution method, Escherichia coli; details: for minimal inhibitory concentration: Escherichia coli, no growth on agar plate after 24 hours
[4] = 0.2 μg/ml, 24 hours, eye observation of turbidity
[5] = 0.4 μg/ml, 24 hours, eye observation of turbidity
[6] = 0.8 μg/ml, 24 hours, eye observation of turbidity
[7] = 3.2 μg/ml, 24 hours, eye observation of turbidity
[8] = 6.4 μg/ml, 24 hours, eye observation of turbidity
[9] = 12.8 μg/ml, 24 hours, eye observation of turbidity
[10] = 25.6 μg/ml, 24 hours, eye observation of turbidity

## Cc1cc(O)c2c(=O)c3c(O)cc(O)c4c5c(O)cc(O)c6c(=O)c7c(O)cc(C)c8c1c2c(c34)c(c78)c65 [Hypericin, hypericin]
[1]; [4]
  bacterial growth in tube 8: +
[1]; [5]
  bacterial growth in tube 7: +
[1]; [6]
  bacterial growth in tube 6: +
[1]; [7]
  bacterial growth in tube 4: −
[1]; [8]
  bacterial growth in tube 3: −
[1]; [9]
  bacterial growth in tube 2: −
[1]; [10]
  bacterial growth in tube 1: −
[1]
  minimal inhibitory concentration: 0.8 µg/mL (≈ 1.59 µM)
[1]; listed as 2
  minimal inhibitory concentration: 6.4 µg/mL (≈ 12.7 µM)
[2]
  Cure rate (%): 70%
  Effective rate (%): 80%
  Total amount of cured ones: 35
  Total amount of effective ones: 40
[2]; listed as hypericin
  Cure rate (%): 80%
Escherichia coli
  Cure (number of mice): 10
  Cure rate (%): 33.3%
  Effective (number of mice): 27
  Effective rate (%): 90%
[3]; [4]
  bacterial growth in tube 8: +
[3]; [5]
  bacterial growth in tube 7: +
[3]; [6]
  bacterial growth in tube 6: +
[3]; [7]
  bacterial growth in tube 4: −
[3]; [8]
  bacterial growth in tube 3: −
[3]; [9]
  bacterial growth in tube 2: −
[3]; [10]
  bacterial growth in tube 1: −
[3]
  minimal inhibitory concentration: 0.4 µg/mL (≈ 0.793 µM)
[3]; listed as 2
  minimal inhibitory concentration: 6.4 µg/mL (≈ 12.7 µM)
